Some test systems named below: Escherichia coli; Pseudomonas aeruginosa; Staphylococcus aureus MR; Staphylococcus aureus; Candida albicans; Salmonella typhimurium.
What all share (assay): ≥ marks a high value that may be exact or a test limit, other limits are often not marked, values filed in µg/mL are converted to µM
For test [1], the system named is Escherichia coli NCTC 10418.
For test [2], the system named is Staphylococcus aureus NCTC 10788.
The test system of test [3] is Bacillus subtilis KCTC 3068.
Test [4] deals with Escherichia coli KCTC 1682.
In test [5] the test system is Pseudomonas aeruginosa KCTC 1637.
Test [6] has as its system Salmonella typhimurium KCTC 1926.
Test [7] concerns Staphylococcus aureus KCTC 1621.
Test [8] deals with Staphylococcus epidermidis KCTC 1917.

Values after ≈ are worked out from the molar mass of the structure shown. Values joined by “and” are separate entries in the source; they are usually repeats but may differ in a detail not shown here. Identical values can stand only once.

A word on the MIC: it is the least concentration at which growth counts as inhibited.

Consider `CC[C@H](C)[C@H](NC(=O)[C@H](C)NC(=O)[C@H](CC(C)C)NC(=O)[C@H](Cc1c[nH]c2ccccc12)NC(=O)[C@H](CC(C)C)NC(=O)[C@H](C)N)C(=O)N[C@@H](CCCN=C(N)N)C(=O)N[C@@H](CCCCN)C(=O)N[C@@H](CCCN=C(N)N)C(N)=O` [ALWLAIRKR], for which the MIC was 8.88 µM (≈ 9.99 µg/mL) in the test with Escherichia coli, 8.88 µM (≈ 9.99 µg/mL) in the test on Pseudomonas aeruginosa, ≥ 35.5 µM with Staphylococcus aureus MR and 3.55 µM (≈ 4 µg/mL) in the test with Staphylococcus aureus.
Consider `CC[C@H](C)[C@H](NC(=O)[C@H](C)NC(=O)[C@H](CC(C)C)NC(=O)[C@H](Cc1ccc(O)cc1)NC(=O)[C@H](CC(C)C)NC(=O)[C@H](C)N)C(=O)N[C@@H](CCCN=C(N)N)C(=O)N[C@@H](CCCCN)C(=O)N[C@@H](CCCN=C(N)N)C(N)=O` [ALYLAIRKR], for which the MIC in the test on Escherichia coli is 3.63 µM (≈ 4 µg/mL); against Pseudomonas aeruginosa, 3.63 µM (≈ 4 µg/mL); in the test with Staphylococcus aureus MR it was 27.2 µM (≈ 30 µg/mL); with Staphylococcus aureus, 2.72 µM (≈ 3 µg/mL).
Regarding `CC[C@H](C)[C@H](NC(=O)CNC(=O)[C@H](C)NC(=O)[C@@H](NC(=O)[C@H](C)NC(=O)[C@@H]1CCCN1C(=O)[C@H](CC(C)C)NC(=O)[C@@H](N)Cc1ccccc1)[C@@H](C)CC)C(=O)N[C@@H](CC(C)C)C(=O)N[C@@H](CO)C(=O)N[C@@H](CCC(N)=O)C(=O)N[C@@H](CC(C)C)C(=O)N[C@@H](Cc1ccccc1)C(N)=O` [FLPAIAGILSQLF], the MIC is ≥ 50 µM in test [1] and ≥ 200 µM in test [2].
On to `CC[C@H](C)[C@H](NC(=O)CNC(=O)[C@@H]1CCCN1C(=O)[C@H](CC(C)C)NC(=O)[C@@H](N)Cc1ccccc1)C(=O)N[C@@H](CC(C)C)C(=O)N[C@@H](CCCCN)C(=O)N[C@H](C(=O)N[C@@H](C)C(=O)N[C@@H](C)C(=O)N[C@@H](CC(N)=O)C(=O)N[C@H](C(=O)N[C@H](C(=O)N1CCC[C@H]1C(=O)NCC(=O)N[C@H](C(=O)N[C@H](C(=O)N[C@H]1CSSC[C@@H](C(=O)O)NC(=O)[C@H](CCCCN)NC(=O)[C@H](CCCCN)NC(=O)[C@H]([C@@H](C)O)NC(=O)[C@H]([C@@H](C)CC)NC(=O)[C@H](C)NC1=O)[C@@H](C)CC)C(C)C)C(C)C)C(C)C)C(C)C` [FLPGILKVAANVVPGVICAITKKC], for which the MIC in test [1] was ≥ 256 µM; in [2], 4 µM and 8 µM.
Consider `CC[C@H](C)[C@H](N)C(=O)N[C@@H](CC(C)C)C(=O)N1CCC[C@H]1C(=O)N[C@@H](Cc1c[nH]c2ccccc12)C(=O)N[C@@H](CCCCN)C(=O)N[C@@H](Cc1c[nH]c2ccccc12)C(=O)N1CCC[C@H]1C(=O)N[C@@H](CCCCN)C(=O)N[C@@H](CCCCN)C(=O)N1CCC[C@H]1C(=O)N[C@@H](Cc1c[nH]c2ccccc12)C(=O)N[C@@H](CCCN=C(N)N)C(=O)N[C@@H](CCCN=C(N)N)C(N)=O` [ILPWKWPKKPWRR], for which the minimum inhibitory concentration (MIC) was determined as 5.58 µM (≈ 9.99 µg/mL) in test [3]; 2.79 µM (≈ 5 µg/mL) in [4]; 22.3 µM (≈ 40 µg/mL) in test [5]; 2.79 µM (≈ 5 µg/mL) in test [6]; 2.79 µM (≈ 5 µg/mL) in [7]; 2.79 µM (≈ 5 µg/mL) in [8].
Regarding `CC[C@H](C)[C@H](N)C(=O)N[C@@H](CC(C)C)C(=O)N1CCC[C@H]1C(=O)N[C@@H](Cc1c[nH]c2ccccc12)C(=O)N[C@@H](CCCCN)C(=O)N[C@@H](Cc1c[nH]c2ccccc12)C(=O)N1CCC[C@H]1C(=O)N[C@@H](Cc1c[nH]c2ccccc12)C(=O)N[C@@H](C)C(=O)N1CCC[C@H]1C(=O)N[C@@H](C)C(=O)N[C@@H](CCCN=C(N)N)C(=O)N[C@@H](CCCN=C(N)N)C(N)=O` [ILPWKWPWAPARR], the MIC with Candida albicans was found to be 1.2 nM (≈ 0.00201 µg/mL); against Escherichia coli, 119 µM (≈ 200 µg/mL); with Pseudomonas aeruginosa, 23.9 µM (≈ 40 µg/mL); in the test on Salmonella typhimurium, 11.9 µM (≈ 20 µg/mL); against Staphylococcus aureus, 11.9 µM (≈ 20 µg/mL).
`CC[C@H](C)[C@H](N)C(=O)N[C@@H](CC(C)C)C(=O)N1CCC[C@H]1C(=O)N[C@@H](Cc1c[nH]c2ccccc12)C(=O)N[C@@H](CCCCN)C(=O)N[C@@H](Cc1c[nH]c2ccccc12)C(=O)N1CCC[C@H]1C(=O)N[C@@H](Cc1c[nH]c2ccccc12)C(=O)N[C@@H](Cc1c[nH]c2ccccc12)C(=O)N[C@@H](CCCCN)C(=O)N[C@@H](Cc1c[nH]c2ccccc12)C(=O)N[C@@H](CCCN=C(N)N)C(=O)N[C@@H](CCCN=C(N)N)C(N)=O` [ILPWKWPWWKWRR]: the MIC in test [3] came to 5.16 µM (≈ 10 µg/mL); in test [4], 10.3 µM (≈ 20 µg/mL); in test [5], 10.3 µM (≈ 20 µg/mL); in test [6], 5.16 µM (≈ 10 µg/mL); in test [7], 2.58 µM (≈ 5 µg/mL); in test [8] it was 5.16 µM (≈ 10 µg/mL).
Regarding `C[C@@H](O)[C@H](NC(=O)[C@H](CCCCN)NC(=O)[C@H](Cc1c[nH]c2ccccc12)NC(=O)[C@H](Cc1c[nH]c2ccccc12)NC(=O)[C@@H](NC(=O)[C@H](CCCCN)NC(=O)[C@@H](N)CCCCN)[C@@H](C)O)C(=O)N[C@@H](Cc1c[nH]c2ccccc12)C(=O)N[C@@H](Cc1c[nH]c2ccccc12)C(=O)N[C@H](C(=O)N[C@@H](CCCCN)C(=O)N[C@@H](Cc1c[nH]c2ccccc12)C(=O)N[C@@H](CO)C(=O)N[C@@H](CCC(N)=O)C(=O)N1CCC[C@H]1C(=O)N[C@@H](CCCCN)C(=O)N[C@@H](CCCCN)C(=O)O)[C@@H](C)O` [KKTWWKTWWTKWSQPKK], the MIC in test [3] worked out at 2 µM (≈ 4.67 µg/mL); in test [4], 2 µM (≈ 4.67 µg/mL); in test [5] it was 4 µM (≈ 9.34 µg/mL); in test [6], 2 µM (≈ 4.67 µg/mL); in [7], 2 µM (≈ 4.67 µg/mL); in test [8], 2 µM (≈ 4.67 µg/mL).
On to `CC[C@H](C)[C@H](NC(=O)[C@H](CCCN=C(N)N)NC(=O)[C@@H]1CCCN1C(=O)[C@H](CC(C)C)NC(=O)[C@@H](N)CCCN=C(N)N)C(=O)N[C@@H](Cc1c[nH]c2ccccc12)C(=O)N[C@@H](Cc1c[nH]c2ccccc12)C(=O)N[C@H](C(=O)N[C@@H](CCCN=C(N)N)C(=O)N[C@H](C(=O)N1CCC[C@H]1C(=O)N[C@@H](CCCN=C(N)N)C(N)=O)C(C)C)[C@@H](C)CC` [RLPRIWWIRVPR], for which the MIC was determined as 3.79 µM (≈ 6.25 µg/mL) in test [3]; 7.58 µM (≈ 12.5 µg/mL) in test [4]; 3.79 µM (≈ 6.25 µg/mL) in [5]; 1.9 µM (≈ 3.13 µg/mL) in [6]; 7.58 µM (≈ 12.5 µg/mL) in test [7]; 3.79 µM (≈ 6.25 µg/mL) in test [8].
On to `CC(C)C[C@H](NC(=O)[C@@H](NC(=O)[C@H](CCCN=C(N)N)NC(=O)[C@H](CCCN=C(N)N)NC(=O)[C@@H](NC(=O)[C@@H](NC(=O)[C@H](CCCN=C(N)N)NC(=O)[C@H](CCCN=C(N)N)NC(=O)[C@@H](NC(=O)[C@H](CC(C)C)NC(=O)[C@@H](N)CCCN=C(N)N)C(C)C)C(C)C)C(C)C)C(C)C)C(=O)N[C@@H](CCCN=C(N)N)C(N)=O` [RLVRRVVRRVLR], for which the values for the MIC with Staphylococcus aureus MR and against Staphylococcus aureus were ≥ 63.4 µM and 60.8 µM (≈ 95.9 µg/mL), respectively.
`CC(C)C[C@H](NC(=O)[C@H](Cc1ccccc1)NC(=O)[C@H](CCCN=C(N)N)NC(=O)[C@H](CCCCN)NC(=O)[C@H](Cc1c[nH]c2ccccc12)NC(=O)[C@H](CCCN=C(N)N)NC(=O)[C@H](CCC(N)=O)NC(=O)[C@@H](NC(=O)[C@H](Cc1c[nH]c2ccccc12)NC(=O)[C@H](CCCN=C(N)N)NC(=O)[C@H](CCCCN)NC(=O)[C@@H](N)Cc1c[nH]c2ccccc12)C(C)C)C(=O)N[C@@H](CCCN=C(N)N)C(N)=O` [WKRWVQRWKRFLR]: the MIC in [3] was determined as 4 µM (≈ 7.78 µg/mL); in test [4], 4 µM (≈ 7.78 µg/mL); in test [5], 16 µM (≈ 31.1 µg/mL); in [6], 2 µM (≈ 3.89 µg/mL); in test [7], 2 µM (≈ 3.89 µg/mL); in test [8], 4 µM (≈ 7.78 µg/mL).
